# In paper PMC7127091 (Bioorganic & Medicinal Chemistry, 2010):
# System: human cytomegalovirus (HCMV) strain Davis
# Assay: Anti-HCMV assay in HEL fibroblasts
# Assay type: cell-based
# Conditions: HCMV replication in cell culture
row,Compound,anti-HCMV activity (in words)
1,"(2S,1’S)-2-Benzyl-2-[(1’-carbamoyl)ethyl]carbamoyl-1-phenetylcarbonylazetidine [(S,S)-10g]",inactive
2,"CC(C)[C@H](NC(=O)[C@]1(Cc2ccccc2)CCN1C(=O)OCc1ccccc1)C(N)=O [(S,S)-7c, (2S,1’S)-2-Benzyl-1-benzyloxycarbonyl-2-[(1’-carbamoyl-2’-methyl)propyl]carbamoyl-azetidine]",maintain measurable anti-HCMV activity
3,"CC(C)CNC(=O)[C@H](C)NC(=O)[C@]1(Cc2ccccc2)CCN1C(=O)OCc1ccccc1 [(S,S)-4c, (2S,1’S)-2-Benzyl-1-benzyloxycarbonyl-2-[(1’-isobutylcarbamoyl)ethyl]carbamoyl-azetidine]",retain the anti-HCMV activity
4,"C[C@H](NC(=O)[C@]1(Cc2ccccc2)CCN1C(=O)N[C@@H](C)c1ccccc1)C(N)=O [(S,S)-10i, (2S,1’S,1’’S)-2-Benzyl-2-[(1’’-carbamoyl)ethyl]carbamoyl-1-[(1’-phenyl)ethyl]carbamoyl-azetidine]",inactive
5,"C[C@H](NC(=O)[C@]1(Cc2ccccc2)CCN1C(=O)NCc1ccccc1)C(N)=O [(S,S)-10h, (2S,1’S)-2-Benzyl-1-benzylcarbamoyl-2-[(1’-carbamoyl)ethyl]carbamoylazetidine]",inactive
6,"C[C@H](NC(=O)[C@]1(Cc2ccccc2)CCN1C(=O)OCc1ccccc1)C(=O)NC(C)(C)C [(S,S)-4a, (2S,1’S)-2-Benzyl-1-benzyloxycarbonyl-2-[(1’-tert-butylcarbamoyl)ethyl]carbamoyl-azetidine]",retain the anti-HCMV activity
7,"C[C@H](NC(=O)[C@H](Cc1ccccc1)NC(=O)OCc1ccccc1)C(=O)NC(C)(C)C [compound 12, Z-Phe-Ala-NH^tBu]",unable to inhibit the replication of HCMV
8,"C[C@H](NC(=O)[C@@]1(Cc2ccccc2)CCN1C(=O)OCc1ccccc1)C(=O)NC(C)(C)C [(R,S)-4a, (2R,1’S)-2-Benzyl-1-benzyloxycarbonyl-2-[(1’-tert-butylcarbamoyl)ethyl]carbamoyl-azetidine]",retain the anti-HCMV activity
9,"CC(C)C[C@H](NC(=O)[C@@]1(Cc2ccccc2)CCN1C(=O)OCc1ccccc1)C(N)=O [(R,S)-7d, (2R,1’S)-2-Benzyl-1-benzyloxycarbonyl-2-[(1’-carbamoyl-3’-methyl)butyl]carbamoyl-azetidine]",maintain measurable anti-HCMV activity
10,"C[C@@H](NC(=O)[C@]1(Cc2ccccc2)CCN1C(=O)OCc1ccccc1)C(N)=O [(S,R)-7a, (2S,1’R)-2-Benzyl-1-benzyloxycarbonyl-2-[(1’-carbamoyl)ethyl]carbamoylazetidine]",maintain measurable anti-HCMV activity
11,"C[C@H](NC(=O)[C@H](Cc1ccccc1)NC(=O)OCc1ccccc1)C(N)=O [compound 11, Z-Phe-Ala-NH2]",unable to inhibit the replication of HCMV
12,"C[C@H](NC(=O)[C@]1(Cc2ccccc2)CCN1C(=O)OCC1c2ccccc2-c2ccccc21)C(N)=O [(S,S)-10a, (2S,1’S)-2-Benzyl-2-[(1’-carbamoyl)ethyl]carbamoyl-1-(9-fluorenylmethoxy)carbonyl-azetidine]",inactive against HCMV

# Same assay, conditions: read-out: EC50 HCMV; Davis strain, 100 PFU, HEL fibroblasts, 7 days
row,Compound,EC50 [µM]
1,"(2S,1’S)-2-Benzyl-2-[(1’-carbamoyl)ethyl]carbamoyl-1-phenetylcarbonylazetidine [(S,S)-10g]",> 100
2,"(2S,1’S)-2-Benzyl-2-[(1’-carbamoyl)ethyl]carbamoyl-1-(4-nitrobenzyloxy)carbonyl-azetidine [(S,S)-10c]",> 20
